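Cultured in 96-well plates, cells were exposed to test compound for 48 hours across five concentrations. GI50 = concentration required for 50% inhibition of growth.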 Activity calls are given as the source filed them. Rule as the data show it: active = GI50 up to about 1.1 µM and inactive = higher.
Columns and labels:
Assay in all cases: DTP human tumour cell line panel, 48 h
SF-268 = test system: SF-268
M14 = test system: M14
HCC 2998 = test system: HCC 2998
MDA-N = test system: MDA-N
K562 = test system: K562
786-0 = test system: 786-0
SK-MEL-28 = test system: SK-MEL-28
SN12C = test system: SN12C
MOLT-4 = test system: MOLT-4
HT-29 = test system: HT-29
KM12 = test system: KM12
LOX IMVI = test system: LOX IMVI
MCF7 = test system: MCF7
NCI-H522 = test system: NCI-H522
COLO 205 = test system: COLO 205
SK-OV-3 = test system: SK-OV-3
OVCAR-5 = test system: OVCAR-5
EKVX = test system: EKVX
OVCAR-4 = test system: OVCAR-4
UACC-62 = test system: UACC-62

Row | Structure (SMILES) | GI50 (SF-268) | GI50 (M14) | GI50 (HCC 2998) | GI50 (MDA-N) | GI50 (K562) | GI50 (786-0) | GI50 (SK-MEL-28) | GI50 (SN12C) | GI50 (MOLT-4) | GI50 (HT-29) | GI50 (KM12) | GI50 (LOX IMVI) | GI50 (MCF7) | GI50 (NCI-H522) | GI50 (COLO 205) | GI50 (SK-OV-3) | GI50 (OVCAR-5) | GI50 (EKVX) | GI50 (OVCAR-4) | GI50 (UACC-62)
1 | CC(NC(=O)c1ccc(OP(=O)(OCc2ccc([N+](=O)[O-])o2)N(C)CCCCCl)cc1)c1ccc(OCC2CCCCC2)c(C(N)=O)c1 (stereo not given) | 2.67 µM (inactive) | 3.67 µM (inactive) | 3.14 µM (inactive) | 2.97 µM (inactive) | 2.42 µM (inactive) | 4.32 µM (inactive) | 2.3 µM (inactive) | 2.25 µM (inactive) | 1.38 µM (inactive) | 2.63 µM (inactive) | 3.36 µM (inactive) | 1.87 µM (inactive) | 2.77 µM (inactive) | 2.38 µM (inactive) | 2.61 µM (inactive) | > 33.1 µM (inactive) | 15.2 µM (inactive) | 14.3 µM (inactive) | 2.35 µM (inactive) | 2.29 µM (inactive)
2 | CC(Oc1ccccc1Cl)C(=O)NN1C(=O)CC(=O)N(c2ccc(Cl)cc2)C1=S (stereo not given) | 67.1 µM (inactive) | 47.5 µM (inactive) | 50.9 µM (inactive) | 37.6 µM (inactive) | 13.1 µM (inactive) | 40.8 µM (inactive) | 94.6 µM (inactive) | 35.2 µM (inactive) | 27.4 µM (inactive) | 47.8 µM (inactive) | 47.6 µM (inactive) | 30.8 µM (inactive) | 29.6 µM (inactive) | 23.3 µM (inactive) | 39.7 µM (inactive) | 59 µM (inactive) | 75.3 µM (inactive) | 45.4 µM (inactive) | 28.1 µM (inactive) | 30.3 µM (inactive)
3 | COC(CC1(CCNc2ccccc2)C(=O)N(COCC[Si](C)(C)C)c2ccccc21)OC (stereo not given) | 11.6 µM (inactive) | 2.51 µM (inactive) | 2.11 µM (inactive) | 24 µM (inactive) | 8.41 µM (inactive) | 6.25 µM (inactive) | 6.98 µM (inactive) | 23.2 µM (inactive) | > 43.7 µM (inactive) | 16.4 µM (inactive) | 8.85 µM (inactive) | 12.5 µM (inactive) | 10.4 µM (inactive) | 11.9 µM (inactive) | 2.69 µM (inactive) | 15.2 µM (inactive) | 16.6 µM (inactive) | 17.8 µM (inactive) | 13.6 µM (inactive) | 14.5 µM (inactive)
4 | N#Cc1c(N2CCCC2)nsc1NCc1ccccc1 | > 100 µM (inactive) | > 100 µM (inactive) | > 100 µM (inactive) | > 100 µM (inactive) | > 100 µM (inactive) | > 100 µM (inactive) | > 100 µM (inactive) | > 100 µM (inactive) | > 100 µM (inactive) | > 100 µM (inactive) | > 100 µM (inactive) | > 100 µM (inactive) | > 100 µM (inactive) | > 100 µM (inactive) | > 100 µM (inactive) | > 100 µM (inactive) | > 100 µM (inactive) | > 100 µM (inactive) | > 100 µM (inactive) | 75.2 µM (inactive)
5 | CC1=C(/C=C/Cl)CC(Cl)C(C)(Cl)C1 (stereo not given) | > 100 µM (inactive) | > 100 µM (inactive) | > 100 µM (inactive) | > 100 µM (inactive) | > 100 µM (inactive) | > 100 µM (inactive) | > 100 µM (inactive) | > 100 µM (inactive) | 63.5 µM (inactive) | 55.8 µM (inactive) | > 100 µM (inactive) | > 100 µM (inactive) | 40 µM (inactive) | 91.2 µM (inactive) | > 100 µM (inactive) | > 100 µM (inactive) | > 100 µM (inactive) | > 100 µM (inactive) | 83.8 µM (inactive) | > 100 µM (inactive)
6 | C=C1CC(C)(COc2cc(=O)oc3ccccc23)OC1=O (stereo not given) | 14.9 µM (inactive) | 1.42 µM (inactive) | 25.2 µM (inactive) | 4.13 µM (inactive) | 2 µM (inactive) | 2.84 µM (inactive) | 3.05 µM (inactive) | 8.3 µM (inactive) | 1.94 µM (inactive) | 3.82 µM (inactive) | 8.02 µM (inactive) | 2.56 µM (inactive) | 1.74 µM (inactive) | 1.8 µM (inactive) | 2.03 µM (inactive) | 10.6 µM (inactive) | 7.78 µM (inactive) | 12.3 µM (inactive) | 3.87 µM (inactive) | 2.48 µM (inactive)
7 | O=C1C=CC(=O)N1c1ccc2c(c1)Cc1cc(NC(=O)C(F)(F)F)ccc1-2 | 19.1 µM (inactive) | 20.9 µM (inactive) | > 45.2 µM (inactive) | 17.1 µM (inactive) | 9.25 µM (inactive) | 5.58 µM (inactive) | 18.1 µM (inactive) | 17.1 µM (inactive) | 4.25 µM (inactive) | 10.2 µM (inactive) | 18.5 µM (inactive) | 18 µM (inactive) | 15.1 µM (inactive) | 5.09 µM (inactive) | 13.1 µM (inactive) | > 100 µM (inactive) | 16.7 µM (inactive) | 14.9 µM (inactive) | 17.3 µM (inactive) | 16.8 µM (inactive)
8 | O=C(/C=C/c1cc(O)c(O)cc1O)OCCc1ccccc1 | 19 µM (inactive) | 14.9 µM (inactive) | > 72.1 µM (inactive) | 13.2 µM (inactive) | 2.28 µM (inactive) | 5.05 µM (inactive) | 21 µM (inactive) | 15.6 µM (inactive) | 2.87 µM (inactive) | 18.4 µM (inactive) | 62.4 µM (inactive) | 12.9 µM (inactive) | 15 µM (inactive) | 2.28 µM (inactive) | 11.2 µM (inactive) | 26.8 µM (inactive) | > 41.9 µM (inactive) | 41.4 µM (inactive) | 17.7 µM (inactive) | 17.9 µM (inactive)
9 | CSc1nc(NC2CC2)c2c(n1)Sc1nc3ccccc3n1N=C2 | 17.1 µM (inactive) | 39.5 µM (inactive) | 27.5 µM (inactive) | 40.2 µM (inactive) | > 100 µM (inactive) | 6.08 µM (inactive) | > 100 µM (inactive) | 8.55 µM (inactive) | > 100 µM (inactive) | 26.3 µM (inactive) | 56.2 µM (inactive) | 31.8 µM (inactive) | 26.6 µM (inactive) | 16.9 µM (inactive) | 41.9 µM (inactive) | 26.5 µM (inactive) | 37.2 µM (inactive) | 24.2 µM (inactive) | 16.7 µM (inactive) | 17.9 µM (inactive)
10 | O=C1CCC(C(=O)O)C2=C1CCCC2 (stereo not given) | > 100 µM (inactive) | > 100 µM (inactive) | > 100 µM (inactive) | > 100 µM (inactive) | > 100 µM (inactive) | > 28.6 µM (inactive) | > 100 µM (inactive) | > 100 µM (inactive) | > 100 µM (inactive) | > 100 µM (inactive) | > 35.6 µM (inactive) | > 100 µM (inactive) | 51.6 µM (inactive) | > 100 µM (inactive) | > 100 µM (inactive) | > 43.4 µM (inactive) | > 21.5 µM (inactive) | > 100 µM (inactive) | > 100 µM (inactive) | > 100 µM (inactive)
11 | O=C1Nc2ccccc2/C1=C1\C(=O)Nc2ccccc21 [ISOINDIGO] | 31.2 µM (inactive) | 32.1 µM (inactive) | 23.2 µM (inactive) | 24.5 µM (inactive) | 7.48 µM (inactive) | 9.42 µM (inactive) | 91.2 µM (inactive) | 19 µM (inactive) | 3.59 µM (inactive) | 4.98 µM (inactive) | 21.6 µM (inactive) | 18.6 µM (inactive) | 4.52 µM (inactive) | 10.3 µM (inactive) | 21.9 µM (inactive) | 59.7 µM (inactive) | 3.48 µM (inactive) | 20.7 µM (inactive) | 10 µM (inactive) | 17.3 µM (inactive)
12 | COc1c(OC)c(OC)c2c(=O)cc(-c3ccc(OC(C)C)cc3)oc2c1OC | > 35.9 µM (inactive) | 19.1 µM (inactive) | 28.4 µM (inactive) | 31.8 µM (inactive) | 5.25 µM (inactive) | > 34.1 µM (inactive) | 38.4 µM (inactive) | > 38.9 µM (inactive) | 3.87 µM (inactive) | 8.32 µM (inactive) | 30.9 µM (inactive) | 27.5 µM (inactive) | 18.3 µM (inactive) | 20.9 µM (inactive) | 21.4 µM (inactive) | > 35.7 µM (inactive) | 18.8 µM (inactive) | 26.4 µM (inactive) | 16.5 µM (inactive) | 15.8 µM (inactive)
13 | CCOC(=O)c1ccc(/N=c2\oc3ccc(OC)cc3cc2-c2nc3ccccc3[nH]2)cc1 | > 100 µM (inactive) | 65.3 µM (inactive) | 86.5 µM (inactive) | 55 µM (inactive) | 72.8 µM (inactive) | > 100 µM (inactive) | > 100 µM (inactive) | > 100 µM (inactive) | > 100 µM (inactive) | > 100 µM (inactive) | > 100 µM (inactive) | > 100 µM (inactive) | 36.5 µM (inactive) | 71.6 µM (inactive) | 73.5 µM (inactive) | 73.8 µM (inactive) | 54.3 µM (inactive) | > 100 µM (inactive) | > 100 µM (inactive) | > 100 µM (inactive)
14 | [O-]c1c2cc(-[n+]3c(-c4ccccc4)cc(-c4ccccc4)cc3-c3ccccc3)cc1CO[C@@H](c1ccccc1)[C@H](c1ccccc1)OCCOCCO[C@@H](c1ccccc1)[C@H](c1ccccc1)OC2 | 0.0635 µM (active) | 0.0687 µM (active) | 0.181 µM (active) | 0.0426 µM (active) | 0.0284 µM (active) | 0.0448 µM (active) | 0.475 µM (active) | 0.0398 µM (active) | 0.0397 µM (active) | 0.0386 µM (active) | 0.0444 µM (active) | 0.0577 µM (active) | 0.0382 µM (active) | 0.0264 µM (active) | 0.0195 µM (active) | 0.0502 µM (active) | 0.453 µM (active) | 0.109 µM (active) | 0.107 µM (active) | 0.0577 µM (active)

Source: ChEMBL document CHEMBL1201862, “PubChem BioAssay data set” (2004)
